Reference: patent publication US11446233B2, “Serums for reducing lipid peroxidation” (L'OREAL, priority 2020, dated 2022)

Test: Ingredient metering: LC-UV concentration of active ingredients on storage
Format: physicochemical
Details: for Concentration of ingredient in inventive formula, T1M 45° C / Concentration of ingredient in inventive formula, T1M TA: in Inventive Ex. 1, 1 month; for Concentration of ingredient in inventive formula, T1M TA / Concentration of ingredient in inventive formula, T2M TA: temperature ambient; for Concentration of ingredient in inventive formula, T2M 45° C / Concentration of ingredient in inventive formula, T2M TA: in Inventive Ex. 1, 2 months; for Concentration of ingredient in inventive formula, T0 M: in Inventive Ex. 1, month 0
From the text: The levels of Ascorbic Acid, Ferulic Acid, Salicylic Acid, and Silybum marianum Extract (Active Silybin) were metered.

Compound | Concentration of ingredient in inventive formula, T1M 45° C [%] | Concentration of ingredient in inventive formula, T1M TA [%] | Concentration of ingredient in inventive formula, T2M 45° C [%] | Concentration of ingredient in inventive formula, T2M TA [%] | Concentration of ingredient in inventive formula, T0 M [%]
COc1cc(/C=C/C(=O)O)ccc1O [Ferulic Acid] | 0.43 | 0.48 | 0.39 | 0.50 | 0.46
O=C(O)c1ccccc1O [Salicylic Acid] | 0.49 | 0.50 | 0.47 | 0.49 | 
O=C1O[C@H]([C@@H](O)CO)C(O)=C1O [Ascorbic Acid] | 14.72 | 15.04 | 14.00 | 15.60 | 15.2
